The test relates to MV-4-11 cells. The experiment in a line: Gene expression microarray analysis (Affymetrix PrimeView) and GSEA. It is filed as cell-based, human. Conditions: MV-4-11 cells, 48 hours. The arrangement: RFU PODN (11730768_x_at) / Fold change /veh PODN (11730768_x_at) / RFU LINC00158 (11744669_a_at) / Fold change /veh LINC00158 (11744669_a_at) / RFU DUSP10 (11751237_a_at) / Fold change /veh DUSP10 (11751237_a_at) / RFU ID3 (11757404_x_at) / Fold change /veh ID3 (11757404_x_at) / RFU PLEKHG5 (11737974_s_at) / Fold change /veh PLEKHG5 (11737974_s_at) / RFU LRRC4B (11730491_at) / Fold change /veh LRRC4B (11730491_at) / RFU GIMAP4 (11747438_a_at) / Fold change /veh GIMAP4 (11747438_a_at) / RFU KRT8 (11758183_x_at) / Fold change /veh KRT8 (11758183_x_at) / RFU CNN1 (11734310_a_at) / Fold change /veh CNN1 (11734310_a_at) / RFU VPS37D (11726825_at) / Fold change /veh VPS37D (11726825_at) / RFU C10orf10 (11716522_x_at) / Fold change /veh C10orf10 (11716522_x_at) / RFU KIR2DL2 /// KIR2DL4 /// KIR2DL5A /// KIR2DL5B /// KIR2DS1 /// KIR2DS2 /// KIR2DS3 /// KIR2DS4 /// KIR3DL3 /// KIR3DL3 /// KIR3DS1 (11738374_at) / Fold change /veh KIR2DL2 /// KIR2DL4 /// KIR2DL5A /// KIR2DL5B /// KIR2DS1 /// KIR2DS2 /// KIR2DS3 /// KIR2DS4 /// KIR3DL3 /// KIR3DL3 /// KIR3DS1 (11738374_at) / RFU C1QL1 (11718748_at) / Fold change /veh C1QL1 (11718748_at) / RFU TMPRSS4 (11747572_a_at) / Fold change /veh TMPRSS4 (11747572_a_at) / RFU HAMP (11756126_x_at) / Fold change /veh HAMP (11756126_x_at) / RFU RNFT2 (11725882_a_at) / Fold change /veh RNFT2 (11725882_a_at) / RFU NR4A2 (11747474_a_at) / Fold change /veh NR4A2 (11747474_a_at) / RFU ABCC12 (11746883_a_at) / Fold change /veh ABCC12 (11746883_a_at) / RFU TMEM136 (11760407_x_at) / Fold change /veh TMEM136 (11760407_x_at) / RFU CLDN22 /// WWC2 (11732394_at) / Fold change /veh CLDN22 /// WWC2 (11732394_at) / RFU HLA-DPB1 (11760878_x_at) / Fold change /veh HLA-DPB1 (11760878_x_at) / RFU SPINT1 (11716480_a_at) / Fold change /veh SPINT1 (11716480_a_at) / RFU GAP43 (11754022_s_at) / Fold change /veh GAP43 (11754022_s_at) / RFU A4GNT (11735810_at) / Fold change /veh A4GNT (11735810_at) / RFU PRB3 (11715151_x_at) / Fold change /veh PRB3 (11715151_x_at) / RFU TUBB4B (11761932_at) / Fold change /veh TUBB4B (11761932_at) / RFU CAPN14 (11732068_a_at) / Fold change /veh CAPN14 (11732068_a_at) / RFU TMCC2 (11721928_a_at) / Fold change /veh TMCC2 (11721928_a_at) / RFU IRGQ (11745062_a_at) / Fold change /veh IRGQ (11745062_a_at) / RFU FAM174B (11720279_a_at) / Fold change /veh FAM174B (11720279_a_at) / RFU TMPRSS4 (11748680_a_at) / Fold change /veh TMPRSS4 (11748680_a_at) / RFU FAM212B (11763350_a_at) / Fold change /veh FAM212B (11763350_a_at) / RFU PLEKHG5 (11743358_a_at) / Fold change /veh PLEKHG5 (11743358_a_at) / RFU ZSCAN30 (11745921_a_at) / Fold change /veh ZSCAN30 (11745921_a_at) / RFU CMKLR1 (11741424_a_at) / Fold change /veh CMKLR1 (11741424_a_at) / RFU LOC101060620 /// MAPK8IP1 (11723275_at) / Fold change /veh LOC101060620 /// MAPK8IP1 (11723275_at) / RFU SPTSSB (11747773_x_at) / Fold change /veh SPTSSB (11747773_x_at) / RFU PRSS12 (11739890_at) / Fold change /veh PRSS12 (11739890_at) / RFU BIN1 (11741810_x_at) / Fold change /veh BIN1 (11741810_x_at) / RFU WNT11 (11732464_a_at) / Fold change /veh WNT11 (11732464_a_at) / RFU C10orf10 (11716521_a_at) / Fold change /veh C10orf10 (11716521_a_at) / RFU C5orf56 (11738089_at) / Fold change /veh C5orf56 (11738089_at) / RFU CYB561 (11721691_x_at) / Fold change /veh CYB561 (11721691_x_at) / RFU ANKRD19P (11752326_a_at) / Fold change /veh ANKRD19P (11752326_a_at) / RFU OR2T12 /// OR2T33 /// OR2T8 (11738714_s_at) / Fold change /veh OR2T12 /// OR2T33 /// OR2T8 (11738714_s_at) / RFU VCAN (11748164_a_at) / Fold change /veh VCAN (11748164_a_at) / RFU JSRP1 (11732532_at) / Fold change /veh JSRP1 (11732532_at) / RFU KRTAP10-11 (11738290_x_at) / Fold change /veh KRTAP10-11 (11738290_x_at) / RFU MYO3A (11730013_a_at) / Fold change /veh MYO3A (11730013_a_at) / RFU EBF3 (11725865_a_at) / Fold change /veh EBF3 (11725865_a_at) / RFU CAMK2N1 (11719241_x_at) / Fold change /veh CAMK2N1 (11719241_x_at) / RFU C5orf56 (11738088_a_at) / Fold change /veh C5orf56 (11738088_a_at) / RFU OLFML3 (11715873_a_at) / Fold change /veh OLFML3 (11715873_a_at) / RFU LOC100653217 /// NTM (11731650_a_at) / Fold change /veh LOC100653217 /// NTM (11731650_a_at) / RFU MAPK11 (11762145_a_at) / Fold change /veh MAPK11 (11762145_a_at) / RFU FIZ1 (11724087_x_at) / Fold change /veh FIZ1 (11724087_x_at) / RFU OASL (11726364_x_at) / Fold change /veh OASL (11726364_x_at) / RFU SOX15 (11748057_x_at) / Fold change /veh SOX15 (11748057_x_at) / RFU CD79A (11719716_a_at) / Fold change /veh CD79A (11719716_a_at) / RFU HIST1H1D (11736915_at) / Fold change /veh HIST1H1D (11736915_at) / RFU CASKIN2 (11723855_a_at) / Fold change /veh CASKIN2 (11723855_a_at) / RFU LOC730098 (11760151_x_at) / Fold change /veh LOC730098 (11760151_x_at) / RFU OR4N2 (11742367_at) / Fold change /veh OR4N2 (11742367_at) / RFU PRRT2 (11749266_a_at) / Fold change /veh PRRT2 (11749266_a_at) / RFU SNX32 (11753110_a_at) / Fold change /veh SNX32 (11753110_a_at) / RFU CDHR5 (11726645_a_at) / Fold change /veh CDHR5 (11726645_a_at) / RFU RCAN1 (11760418_a_at) / Fold change /veh RCAN1 (11760418_a_at) / RFU FAM167A (11723789_a_at) / Fold change /veh FAM167A (11723789_a_at) / RFU FAM26E (11764081_at) / Fold change /veh FAM26E (11764081_at) / RFU ISYNA1 (11749810_s_at) / Fold change /veh ISYNA1 (11749810_s_at) / RFU ACY1 (11761880_at) / Fold change /veh ACY1 (11761880_at) / RFU 11764098_at / Fold change /veh 11764098_at / RFU SAMD14 (11745864_x_at) / Fold change /veh SAMD14 (11745864_x_at) / RFU NPB (11741838_a_at) / Fold change /veh NPB (11741838_a_at) / RFU TMPRSS6 (11731388_a_at) / Fold change /veh TMPRSS6 (11731388_a_at) / RFU KRTAP10-2 (11738614_at) / Fold change /veh KRTAP10-2 (11738614_at) / RFU ARHGAP8 /// PRR5-ARHGAP8 (11727945_x_at) / Fold change /veh ARHGAP8 /// PRR5-ARHGAP8 (11727945_x_at) / RFU KRTAP5-7 /// NADSYN1 (11734609_at) / Fold change /veh KRTAP5-7 /// NADSYN1 (11734609_at) / RFU RASL12 (11751679_a_at) / Fold change /veh RASL12 (11751679_a_at) / RFU CDKN2B (11736163_a_at) / Fold change /veh CDKN2B (11736163_a_at) / RFU PRF1 (11729649_at) / Fold change /veh PRF1 (11729649_at) / RFU, ZNF638 /// ZNF638-IT1 / Fold change vs veh, ZNF638 /// ZNF638-IT1 / RFU, PANK3 / Fold change vs veh, PANK3 / RFU, SH3YL1 / Fold change vs veh, SH3YL1 / RFU, ZEB2 / Fold change vs veh, ZEB2 / RFU, NRIP1 / Fold change vs veh, NRIP1 / RFU, PTTG1IP / Fold change vs veh, PTTG1IP / RFU, CAPN2 / Fold change vs veh, CAPN2 / RFU, MED14 / Fold change vs veh, MED14 / RFU, SNORA58 / Fold change vs veh, SNORA58 / RFU, C1orf63 / Fold change vs veh, C1orf63 / RFU, LRRFIP1 / Fold change vs veh, LRRFIP1 / RFU, NDUFAF7 / Fold change vs veh, NDUFAF7 / RFU, SLC12A2 / Fold change vs veh, SLC12A2 / RFU, IBTK / Fold change vs veh, IBTK / RFU, ESF1 / Fold change vs veh, ESF1 / Fold change vs veh, TMEM50B / RFU, TAOK1 / Fold change vs veh, TAOK1 / RFU, ACBD3 / Fold change vs veh, ACBD3 / RFU, TMA16 / Fold change vs veh, TMA16 / RFU, RWDD3 / Fold change vs veh, RWDD3 / RFU, BCAT1 / Fold change vs veh, BCAT1 / RFU, EDEM3 / Fold change vs veh, EDEM3 / RFU, TMEM33 / Fold change vs veh, TMEM33 / RFU, WDR75 / Fold change vs veh, WDR75 / RFU, AHCTF1 / Fold change vs veh, AHCTF1 / RFU, TFRC / Fold change vs veh, TFRC / RFU, ZDHHC17 / Fold change vs veh, ZDHHC17 / RFU, NOM1 / Fold change vs veh, NOM1 / RFU, ARL8B / Fold change vs veh, ARL8B / RFU, ZBTB11 / Fold change vs veh, ZBTB11 / RFU, TAMM41 / Fold change vs veh, TAMM41 / RFU, KIAA1704 /// LOC100996395 / Fold change vs veh, KIAA1704 /// LOC100996395 / RFU, ING1 / Fold change vs veh, ING1 / RFU, TRMT61B / Fold change vs veh, TRMT61B / RFU, FUBP3 / Fold change vs veh, FUBP3 / RFU, TP53 / Fold change vs veh, TP53 / RFU, TNKS2 / Fold change vs veh, TNKS2 / RFU, ZFP14 / Fold change vs veh, ZFP14 / RFU, ACTR2 / Fold change vs veh, ACTR2 / RFU, PPP3R1 / Fold change vs veh, PPP3R1 / RFU, PIK3R1 / Fold change vs veh, PIK3R1 / RFU, HNRNPA1 / Fold change vs veh, HNRNPA1 / RFU, RNF170 / Fold change vs veh, RNF170 / RFU, ZNF28 / Fold change vs veh, ZNF28 / RFU, RNGTT / Fold change vs veh, RNGTT / RFU, OGT / Fold change vs veh, OGT / RFU, BRD1 / Fold change vs veh, BRD1 / RFU, MARS / Fold change vs veh, MARS / RFU, ZNF655 / Fold change vs veh, ZNF655 / RFU, FAHD1 / Fold change vs veh, FAHD1 / RFU, BDP1 / Fold change vs veh, BDP1 / RFU, LRRCC1 / Fold change vs veh, LRRCC1 / RFU, ARID1A / Fold change vs veh, ARID1A / RFU, ZNF146 / Fold change vs veh, ZNF146 / RFU, ZNF330 / Fold change vs veh, ZNF330 / RFU, GPN3 / Fold change vs veh, GPN3 / RFU, C9orf123 / Fold change vs veh, C9orf123 / RFU, N4BP2L2 / Fold change vs veh, N4BP2L2 / RFU, ARFIP1 / Fold change vs veh, ARFIP1 / RFU, FAM179B / Fold change vs veh, FAM179B / RFU, BCL10 / Fold change vs veh, BCL10 / RFU, UHRF1BP1L / Fold change vs veh, UHRF1BP1L / RFU, BET1 / Fold change vs veh, BET1 / RFU, CNOT2 / Fold change vs veh, CNOT2 / RFU, ZNF268 / Fold change vs veh, ZNF268 / Fold change vs veh, ZNF507 / RFU, DGCR2 / Fold change vs veh, DGCR2 / RFU, WDSUB1 / Fold change vs veh, WDSUB1 / Fold change vs veh, HSP90B1 /// MIR3652 / RFU, ADSS / Fold change vs veh, ADSS / RFU, GK / Fold change vs veh, GK / RFU, ZNF148 / Fold change vs veh, ZNF148 / RFU, TAF9 / Fold change vs veh, TAF9 / RFU, SLC1A5 / Fold change vs veh, SLC1A5 / RFU, SLMO2 / Fold change vs veh, SLMO2 / RFU, ABCC4 / Fold change vs veh, ABCC4 / RFU, LOC101060439 /// RAP1B / Fold change vs veh, LOC101060439 /// RAP1B / RFU, RFX7 / Fold change vs veh, RFX7 / RFU, GTPBP10 / Fold change vs veh, GTPBP10 / RFU, CNEP1R1 / Fold change vs veh, CNEP1R1 / RFU, BIVM-ERCC5 /// ERCC5 / Fold change vs veh, BIVM-ERCC5 /// ERCC5 / RFU, ILF3 / Fold change vs veh, ILF3 / RFU 11762660_at / Fold change /veh 11762660_at / RFU VCAN (11757783_s_at) / Fold change /veh VCAN (11757783_s_at) / RFU DDX43 (11728927_at) / Fold change /veh DDX43 (11728927_at) / RFU KRT8 (11758188_x_at) / Fold change /veh KRT8 (11758188_x_at) / RFU NKD1 (11759106_at) / Fold change /veh NKD1 (11759106_at) / RFU SRD5A1 (11742802_a_at) / Fold change /veh SRD5A1 (11742802_a_at) / RFU TPSAB1 /// TPSB2 (11721975_s_at) / Fold change /veh TPSAB1 /// TPSB2 (11721975_s_at) / RFU GSTM3 (11746129_a_at) / Fold change /veh GSTM3 (11746129_a_at) / RFU IL23R (11737362_x_at) / Fold change /veh IL23R (11737362_x_at) / RFU TMEM51 (11727254_a_at) / Fold change /veh TMEM51 (11727254_a_at) / RFU PIWIL2 (11732686_x_at) / Fold change /veh PIWIL2 (11732686_x_at) / RFU ORM1 (11744905_x_at) / Fold change /veh ORM1 (11744905_x_at) / RFU CCDC152 (11743942_at) / Fold change /veh CCDC152 (11743942_at) / RFU ECM1 (11717891_a_at) / Fold change /veh ECM1 (11717891_a_at) / RFU IL23R (11748794_a_at) / Fold change /veh IL23R (11748794_a_at) / RFU TNFAIP8L3 (11732012_x_at) / Fold change /veh TNFAIP8L3 (11732012_x_at) / RFU MBOAT4 (11741988_at) / Fold change /veh MBOAT4 (11741988_at) / RFU 11764193_at / Fold change /veh 11764193_at / RFU TMEM53 (11763286_at) / Fold change /veh TMEM53 (11763286_at) / RFU MAGEB2 (11727129_at) / Fold change /veh MAGEB2 (11727129_at) / RFU TMEM200A (11744735_a_at) / Fold change /veh TMEM200A (11744735_a_at) / RFU CCDC152 (11751479_a_at) / Fold change /veh CCDC152 (11751479_a_at) / RFU FAM211A (11726209_a_at) / Fold change /veh FAM211A (11726209_a_at) / RFU RGS16 (11746705_a_at) / Fold change /veh RGS16 (11746705_a_at) / RFU VCAN (11755009_s_at) / Fold change /veh VCAN (11755009_s_at) / RFU RHOB (11743442_s_at) / Fold change /veh RHOB (11743442_s_at) / RFU RGS16 (11720943_a_at) / Fold change /veh RGS16 (11720943_a_at) / RFU RGS16 (11720944_at) / Fold change /veh RGS16 (11720944_at) / RFU, VPS4B / Fold change vs veh, VPS4B / RFU, CREB1 / Fold change vs veh, CREB1 / RFU, DNAJC13 / Fold change vs veh, DNAJC13 / RFU, GNAQ / Fold change vs veh, GNAQ / RFU, CDK5R1 / Fold change vs veh, CDK5R1 / RFU, ZRANB3 / Fold change vs veh, ZRANB3 / RFU, CUL4A / Fold change vs veh, CUL4A / RFU, CCNY / Fold change vs veh, CCNY / RFU, UFL1 / Fold change vs veh, UFL1 / RFU, COG3 / Fold change vs veh, COG3 / RFU, DIAPH2 / Fold change vs veh, DIAPH2 / RFU, SKA2 / Fold change vs veh, SKA2 / RFU, AFF3 / Fold change vs veh, AFF3 / RFU, LMF1 / Fold change vs veh, LMF1 / RFU, IPO11 / Fold change vs veh, IPO11 / RFU, DFFB / Fold change vs veh, DFFB / RFU, FOXP1 / Fold change vs veh, FOXP1 / RFU, CARD8 / Fold change vs veh, CARD8 / RFU, STRN3 / Fold change vs veh, STRN3 / RFU, ADK / Fold change vs veh, ADK / RFU, RASSF2 / Fold change vs veh, RASSF2 / RFU, WIPF1 / Fold change vs veh, WIPF1 / RFU, LARP1B / Fold change vs veh, LARP1B / RFU, RASA1 / Fold change vs veh, RASA1 / RFU, RB1 / Fold change vs veh, RB1 / RFU, PPFIA1 / Fold change vs veh, PPFIA1 / RFU, MAT2A / Fold change vs veh, MAT2A / RFU, CCT5 / Fold change vs veh, CCT5 / RFU, WDR92 / Fold change vs veh, WDR92 / RFU, CUX1 / Fold change vs veh, CUX1 / RFU, TTC7A / Fold change vs veh, TTC7A / RFU, TMEM135 / Fold change vs veh, TMEM135 / RFU, DEPTOR / Fold change vs veh, DEPTOR / RFU, CPM / Fold change vs veh, CPM / RFU, DNAJB6 / Fold change vs veh, DNAJB6 / RFU, CACNA2D3 / Fold change vs veh, CACNA2D3 / RFU, DTX4 / Fold change vs veh, DTX4 / RFU, TFCP2 / Fold change vs veh, TFCP2 / RFU, GMCL1 /// GMCL1P1 / Fold change vs veh, GMCL1 /// GMCL1P1 / RFU, AEBP2 / Fold change vs veh, AEBP2 / RFU, SNHG1 /// SNORD22 /// SNORD25 /// SNORD26 /// SNORD27 /// SNORD28 /// SNORD29 /// SNORD31 / Fold change vs veh, SNHG1 /// SNORD22 /// SNORD25 /// SNORD26 /// SNORD27 /// SNORD28 /// SNORD29 /// SNORD31 / Fold change (Aza/veh), C12orf56 (ProbeSet 11735607_a_at) / Fold change (ACY-1035/veh), C12orf56 (ProbeSet 11735607_a_at) / Fold change (Aza/veh), FGFR1OP (ProbeSet 11751329_s_at) / Fold change (ACY-1035/veh), FGFR1OP (ProbeSet 11751329_s_at) / Fold change (Aza/veh), VPS36 (ProbeSet 11739960_a_at) / Fold change (ACY-1035/veh), VPS36 (ProbeSet 11739960_a_at) / RFU SYPL1 (11715823_x_at) / Fold change /veh SYPL1 (11715823_x_at) / RFU IGFBP7 (11715501_s_at) / Fold change /veh IGFBP7 (11715501_s_at) / RFU REEP3 (11722064_at) / Fold change /veh REEP3 (11722064_at) / RFU IGLL1 (11728026_x_at) / Fold change /veh IGLL1 (11728026_x_at): dose or concentration left out as unconfirmed.

Regarding `Nc1ccc(-c2cccs2)cc1NC(=O)c1ccc2c(c1)cc(C1CC1)n2CCN1CCOCC1` [ACY-1035], the “Fold change /veh HIST1H1D (11736915_at)” value is 0.94.

These data come from PMC5218480 (PLoS ONE, 2017).
